# According to ChEMBL document CHEMBL6103545, “Discovery of GS-2278, a Potent and Selective LPAR1 Antagonist for the Treatment of Idiopathic Pulmonary Fibrosis” (J Med Chem, 2025):
# pEC50, pKi: −log10 of the molar value.
# Legend:
# [1] = biological target: T1, Lysophosphatidic acid receptor 3 (Homo sapiens, UniProt Q9UBY5); experiment: Antagonist activity at human LPA3 receptor overexpressed in CHO cells pre-incubated for 1 hr followed by LPA addition by fluorescence based FLIPR calcium assay; type: functional, cell-based
# T1 sequence (Q9UBY5 whole entry): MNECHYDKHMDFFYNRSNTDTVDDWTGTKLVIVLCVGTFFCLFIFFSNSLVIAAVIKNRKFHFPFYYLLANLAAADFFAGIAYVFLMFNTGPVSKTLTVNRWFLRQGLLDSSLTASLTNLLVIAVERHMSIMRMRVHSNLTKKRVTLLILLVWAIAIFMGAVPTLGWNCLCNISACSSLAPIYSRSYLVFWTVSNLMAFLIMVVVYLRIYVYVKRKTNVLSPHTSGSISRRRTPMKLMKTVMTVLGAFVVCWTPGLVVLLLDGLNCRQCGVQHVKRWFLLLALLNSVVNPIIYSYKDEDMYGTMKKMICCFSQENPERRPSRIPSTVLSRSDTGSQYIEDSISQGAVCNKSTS
# [2] = biological target: T2, Lysophosphatidic acid receptor 1 (Homo sapiens, UniProt Q92633); experiment: Antagonist activity at human wild-type LPA1 receptor expressed in HEK293 cells assessed as internalization incubated for 30 mins by BRET assay; type: cell-based
# Cytochrome P450 2C8 = biological target: T3, Cytochrome P450 2C8 (Homo sapiens, UniProt P10632); experiment: Inhibition of CYP2C8 (unknown origin) using midazolam as substrate; type: ADME
# T3 sequence (P10632 whole entry): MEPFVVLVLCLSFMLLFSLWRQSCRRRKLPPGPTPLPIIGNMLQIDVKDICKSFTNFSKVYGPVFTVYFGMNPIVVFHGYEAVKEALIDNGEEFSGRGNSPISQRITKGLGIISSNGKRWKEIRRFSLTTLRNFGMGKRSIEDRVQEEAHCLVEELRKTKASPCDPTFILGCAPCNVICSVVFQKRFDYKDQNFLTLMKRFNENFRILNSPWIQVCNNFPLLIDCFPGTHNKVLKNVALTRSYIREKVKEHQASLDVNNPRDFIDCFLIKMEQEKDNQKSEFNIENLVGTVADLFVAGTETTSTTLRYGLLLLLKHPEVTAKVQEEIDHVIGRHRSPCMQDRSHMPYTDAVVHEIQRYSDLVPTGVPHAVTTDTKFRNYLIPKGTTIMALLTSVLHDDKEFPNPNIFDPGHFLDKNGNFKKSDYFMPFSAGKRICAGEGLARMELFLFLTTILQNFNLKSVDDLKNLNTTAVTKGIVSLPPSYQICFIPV
# [3] = Apparent permeability from apical to basolateral side in human Caco-2 cells at 10 uM; type: ADME, cell-based
# [4] = Drug metabolism in female CD-1 mouse assessed as (R)-1-(2,5-Difluoropyridin-3-yl)ethyl (4-(5-Acetamidopyridin-2-yl)-1-methyl-1H-1,2,3-triazol-5-yl)carbamate metabolite formation at 1 uM by LC/MS/MS analysis; type: ADME
# [5] = Half-life in Beagle dog at 5 mg/kg, po measured after 24 hrs by LC/MS/MS analysis; type: ADME, organism-based, Canis lupus familiaris; conditions: in vivo
# [6] = AUC (0 to 24 hrs) in cynomolgus monkey at 5 mg/kg, po measured after 24 hrs by LC/MS/MS analysis; type: ADME, organism-based, Macaca fascicularis; conditions: in vivo
# [7] = Volume of distribution in cynomolgus monkey at 1 mg/kg, iv measured after 24 hrs by LC/MS/MS analysis; type: ADME, organism-based, Macaca fascicularis; conditions: in vivo
# [8] = Plasma protein binding in human assessed as unbound fraction incubated for 24 hrs by equilibrium dialysis based Rapidfire-QToF mass spectrometric analysis; type: ADME, cell-free
# [9] = biological target: T2, Lysophosphatidic acid receptor 1; experiment: Antagonist activity at LPA1 receptor in human TWNT-4 cells pre-incubated for 1 hr followed by LPA stimulation and measured after 30 min in presence of 4% human serum albumin by MRTF-A assay; type: cell-based
# P-gp (human) = experiment: Apparent permeability from apical to basolateral side of human P-gp transfected MDCK cells measured after 20 min by LC/MS/MS analysis; type: ADME, cell-based, Canis lupus familiaris; conditions: dog, MDCK-MDR1
# [10] = Apparent permeability from basolateral to apical side in human Caco-2 cells at 10 uM; type: ADME, cell-based
# [11] = biological target: T2, Lysophosphatidic acid receptor 1; experiment: Antagonist activity at LPA1 receptor in serum starved human Primary lung fibroblast cells pre-incubated for 1 hr followed by LPA stimulation and measured after 30 min by MRTF-A assay; type: cell-based
# BCRP (human) = experiment: Apparent permeability from apical to basolateral side of human BCRP transfected MDCK cells measured after 20 min by LC/MS/MS analysis; type: ADME, cell-based, Canis lupus familiaris; conditions: dog
# Cytochrome P450 1A2 = biological target: T4, Cytochrome P450 1A2 (Homo sapiens, UniProt P05177); experiment: Inhibition of CYP1A2 (unknown origin) using midazolam as substrate; type: ADME
# T4 sequence (P05177 whole entry): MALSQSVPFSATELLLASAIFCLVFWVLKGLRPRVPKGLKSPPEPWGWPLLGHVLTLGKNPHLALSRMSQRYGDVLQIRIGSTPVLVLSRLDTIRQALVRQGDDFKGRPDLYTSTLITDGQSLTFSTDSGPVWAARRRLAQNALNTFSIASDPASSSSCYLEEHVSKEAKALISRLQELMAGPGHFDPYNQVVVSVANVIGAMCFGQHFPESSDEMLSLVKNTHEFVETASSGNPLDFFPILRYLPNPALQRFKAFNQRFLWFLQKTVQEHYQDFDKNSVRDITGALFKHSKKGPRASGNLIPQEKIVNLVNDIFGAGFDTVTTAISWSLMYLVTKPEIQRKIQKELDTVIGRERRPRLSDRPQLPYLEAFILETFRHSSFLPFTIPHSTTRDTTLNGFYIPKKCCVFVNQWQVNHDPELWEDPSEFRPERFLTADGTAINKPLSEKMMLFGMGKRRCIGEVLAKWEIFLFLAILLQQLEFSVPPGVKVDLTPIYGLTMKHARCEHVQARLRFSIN
# [12] = Plasma protein binding in cynomolgus monkey assessed as unbound fraction at 2 uM incubated for 24 hrs by LC-MS analysis; type: ADME, cell-free, Macaca fascicularis
# [13] = Toxicity in telemetry implanted Beagle dog CNS at 30 mg/kg/day, po measured upto 24 hrs by radiotelemetry based electroencephalogram analysis; type: organism-based, Canis lupus familiaris; conditions: in vivo
# [14] = Oral bioavailability in male Sprague-Dawley rat at 5 mg/kg measured after 24 hrs by LC/MS/MS analysis; type: ADME, organism-based; conditions: in vivo
# [15] = Volume of distribution in male Sprague-Dawley rat at 1 mg/kg, iv s measured after 24 hrs by LC/MS/MS analysis; type: ADME, organism-based; conditions: in vivo
# [16] = Toxicity in Beagle dog CNS at 60 mg/kg/day, po measured after 7 days by radiotelemetry; type: organism-based, Canis lupus familiaris; conditions: in vivo, 168 h, time 7 day
# [17] = Metabolic stability in Beagle dog liver microsomes assessed as intrinsic clearance at 1 uM by LC/MS/MS analysis; type: ADME, Canis lupus familiaris, Microsome; conditions: read-out: CLH (converted)
# [18] = Metabolic stability in male Sprague-Dawley rat liver microsomes assessed as intrinsic clearance at 1 uM by LC/MS/MS analysis; type: ADME, Microsome; conditions: read-out: CLH (converted)
# [19] = biological target: T2, Lysophosphatidic acid receptor 1; experiment: Antagonist activity at human LPA1 receptor expressed in HEK293 cells assessed as Galpha12 effector recruitment incubated for 10 mins by BRET assay; type: functional, cell-based
# [20] = Oral bioavailability in cynomolgus monkey at 5 mg/kg measured after 24 hrs by LC/MS/MS analysis; type: ADME, organism-based, Macaca fascicularis; conditions: in vivo
# [21] = biological target: T2, Lysophosphatidic acid receptor 1; experiment: Displacement of [3H]LPA from human LPA1 receptor overexpressed in CHO cell membrane assessed as inhibition constant incubated for 90 min by competitive radioligand binding assay; type: cell membranes
# T2 sequence (Q92633 whole entry): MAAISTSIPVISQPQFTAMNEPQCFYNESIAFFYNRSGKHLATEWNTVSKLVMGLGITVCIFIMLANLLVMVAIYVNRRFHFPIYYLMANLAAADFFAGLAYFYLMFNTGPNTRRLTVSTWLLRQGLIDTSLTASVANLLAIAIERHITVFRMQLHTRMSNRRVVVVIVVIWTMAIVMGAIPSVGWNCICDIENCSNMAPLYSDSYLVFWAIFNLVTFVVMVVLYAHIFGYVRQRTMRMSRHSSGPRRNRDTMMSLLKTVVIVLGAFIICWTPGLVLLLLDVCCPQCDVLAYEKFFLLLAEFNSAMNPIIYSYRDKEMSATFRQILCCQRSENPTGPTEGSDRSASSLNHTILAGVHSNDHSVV
smiles,measurement,setting,value
C[C@@H](OC(=O)Nc1c(-c2ccc(NC(=O)c3cnc(C(F)(F)F)nc3)cn2)nnn1C)c1cc(F)cnc1F,pEC50,[1],< 5.00
same,pEC50,[2],7.93
same,inhibition (INH),Cytochrome P450 2C8,Not_active
same,Papp A→B at 10 µM,[3],0.4 ×10⁻⁶ cm/s
same,Drug metabolism,[4],metabolite_detected
same,half-life,[5],174 min
same,AUC(0-t) at 24 h,[6],8.9 µM·h
same,Vd,[7],0.8 L/kg
same,fraction unbound at 24 h,[8],0.19
same,pEC50,[9],7.47
same,Papp A→B at 20 min,P-gp (human),0.3 ×10⁻⁶ cm/s
same,Papp B→A at 10 µM,[10],17 ×10⁻⁶ cm/s
same,pEC50,[11],8.10
same,Papp A→B at 20 min,BCRP (human),< 0.01 ×10⁻⁶ cm/s
same,inhibition (INH),Cytochrome P450 1A2,Not_active
same,"fraction unbound at 24 h, 2 µM",[12],0.24
same,Activity,[13],Non-toxic
same,bioavailability,[14],40%
same,Vd,[15],0.8 L/kg
same,Activity,[16],Non-toxic
same,CLint scaled at 1 µM,[17],1.5 mL/min/kg
same,CLint scaled at 1 µM,[18],16.3 mL/min/kg
same,pEC50,[19],6.97
same,bioavailability,[20],43%
same,pKi,[21],7.22
